{"source": "patent US20020055174A1", "about": "“Complex for transferring an anionic substance of interest into a cell” (priority 2000, published 2002)", "key": {"plasmid pTG11236": {"tested_on": "plasmid pTG11236", "assay": "Gel retardation assay (DNA binding)", "procedure": "3μg of the plasmid pTG11236 were incubated with increasing amounts of the respective peptide in a final volume of 30 μl with 0.9% NaCl. After 20 min of incubation at room temperature, 6 μl 5× loading buffer (glycerol and bromphenol blue in TAE buffer) were added and 10 μl of these solutions were analyzed on a 1% agarose gel in the presence of ethidium bromide.\nThe ability of ppTG1 peptide to complex DNA was analyzed by gel retardation assays. […] After 20 minutes incubation at room temperature, loading buffer was added and 10 μl of the resulting solution were analyzed on a 1% agarose gel.\nppTG1 derivatives as they are indicated in Materials and Methods, were tested for their capacity to bind plasmid DNA by gel retardation assays."}, "[1]": {"assay": "Liposome leakage assay, POPC liposomes containing calcein", "settings": "pH5 and pH7, 20 μg as starting point", "procedure": "Leakage activity was plotted against peptide concentration.\nThe peptide ppTG1 was tested for its capacity to cause membrane disruption in a liposome leakage assay with POPC liposomes containing the fluorescent product calcein. […] Release of calcein by Triton X-100 treatment was taken as positive control reaction, incubation with water served as negative control. The membranolytic activity of peptide ppTG1 (20 μg as starting point) was compared with those of equal quantities (20 μg) of JTS-1, JTS-1-K13 and KALA."}, "293-EBNA cells": {"tested_on": "293-EBNA cells", "assay": "Transfection in vitro, luciferase plasmid pTG11056", "format": "cell-based", "procedure": "Cells were plated on 24 well plates at a density of 4×10^4 (293-EBNA ) or 7×10^4 (HeLa, Renca) cells/well in DMEM supplemented with 10% FCS. The next day, the medium was replaced by 200 μl serum-free DMEM and plasmid (pTG11056 or pTG11236)/peptide complexes or plasmid/peptide/lipid complexes were prepared in 30 μl 0.9% NaCl or 5% glucose. After 20 min at room temperature these complexes were added to the cells which were then incubated for 2-3 h at 37° C. and 5% CO2 before 1 ml serum-containing DMEM was added. Approximately 20-hours later, cells were lysed by addition of 100 μl 1× Promega lysis buffer, 20 μl of the lysates were analysed for luciferase activity. Proteins were quantified with the bicinchonic acid (BCA) colorimetric method (Smith, Anal. Biochem. 150 (1985), 76-85).\n4×10^4 293-EBNA cells, plated on 24 well plates the day before, were transfected with 0.5 μg, 0.1 μg, 0.05 μg and 0.01 μg of the plasmid pTG11056. The plasmid was either mixed with completely or uncompletely DNA-complexing amounts of ppTG1 in 30 μl 5% glucose and after 20 min at room temperature the mixture was added to the cells which were incubated in 200 μl serum-free medium. Further, pTG11056 was formulated with the established transfection reagents Lipofectin and PEI. […] After twenty hours, cells were washed and luciferase activity was determined in ⅕ of the lysed cells."}, "[2]": {"tested_on": "WiDr, MDA-MB-435S, SW480 and LoVo", "assay": "Transfection of human tumor cell lines", "format": "cell-based", "settings": "ppTG1/plasmid pTG11236 complexes, luciferase day 1", "procedure": "WiDr (ATCC CCL-218), MDA-MB-435S (ATCC HTB-129), SW480 (ATCC CCL-228) and LoVo cell (CCL-229) were cultivated in the appropriate medium with 10% fetal calf serum, 1% gentamycine, 1% glutamine and 3 g/l glucose, in an incubator at 37° C. and 5% CO2.\nThe transfection efficiencies with plasmid/ppTG1 complexes were tested in the human tumor cells WiDr, MDA-MB-435S, SW480 and LoVo (ATCC) in comparison to lipofectin, PEI and pcTG90/DOPE (1:1) [+/−] 5."}, "CHO cells": {"tested_on": "CHO cells", "assay": "Transfection in vitro, luciferase plasmid pTG11236", "format": "cell-based", "procedure": "A comparison of ppTG1 and KALA was carried out in HeLa and CHO cells. 5×10^4 cells were seeded on 24 well plates. The next day, cells were transfected with 500 ng and 50 ng of pTG11236, complexed with ppTG1 or KALA in 30 μl 0.9% NaCl. The charge ratio +/− varied from 1, 2, 3, 4, 7 to 10. Cells were harvested 20 h after transfection and lysis was obtained in 100 μl Promega lysis buffer. Luciferase activity and total protein concentrations in 20 μl were determined."}, "B6SJL mice": {"tested_on": "B6SJL mice", "procedure": "Indicated amounts of the luciferase expression plasmid pTG11236 were mixed with ppTG1 and /or pcTG90/DOPE. The resulting formulations were injected intramuscularly(30 μl), intravenously(250 μl) into mice or intratumorally (Renca tumors, 100 μgl). Muscles, tumors or organs were recovered at the indicated points of time, macerated and tested for luciferase activity with the luciferase assay kit from Promega.\n60 μg or 30 μg of the plasmid pTG11236 were mixed with peptide ppTG1 and/or with a pcTG90/DOPE 1:2 mixture in 250 μl 5% glucose. After 20 min incubation at room temperature, the complexes were intravenously injected into B6SJL mice. Mice were sacrificed at day 1. The lungs were recovered, total protein was extracted and luciferase activity was analysed.\nThe potential of gene transfer with mono-component peptide vectors was investigated in vivo. Fifty or sixty μg of the luciferase expression plasmid pTG11236 were complexed with pcTG90/DOPE (1:2) [+/−] 10 in 250 μl 5% glucose (Meyer et al. 2000). The resulting lipoplex vector served as reference for gene transfer studies with pTG11236 complexed with ppTG1, ppTG20 and ppTG32 in 250 μl 5% glucose. Five mice per group were intravenously injected, the animals were sacrificed at day 1 after injection. Lungs were tested for luciferase activity."}, "[3]": {"assay": "Liposome leakage assay, POPC/cholesterol 3:2 liposomes", "settings": "for liposome leakage activity, in words: POPC/chol 3:2 liposomes", "experimental": "Increasing amounts of the indicated peptides were incubated with POPC/Cholesterol (3:2 mol/mol) liposomes for 30 min at RT. Emitted fluorescence was plotted against peptide concentration. […] B) Liposome leakage activity with complexes of ppTG1 and the plasmid pTG11236 at pH7.\n1-Palmitoyl-2-Oleoyl-phosphatidylcholine (POPC) liposomes were prepared by the repeated freeze-thaw method followed by extrusion (Olson et al., 1979, Biochim. Biophys. Acta 557, 19-23). Ten μ-moles of POPC in chloroform were placed in a glass tube and solvent was evaporated under reduced pressure using a Labconco Rapidvap vortex evaporator (Uniequip, Germany). The resulting lipid film was hydrated with 0.5 ml of an aqueous solution of calcein (lOOmM calcein, 3.75 eq. NaOH, 50mM NaCl). The lipid suspension was sonicated until the solution became clear using a sonic water bath (Bransonic 221, Branson Ultrasonics Corp., USA). Five cycles of freeze-thaw were performed before liposomes were extruded by 4 passages through 200 nm pore diameter polycarbonate membranes (Nuclepore, Costar, Mass., USA). Free calcein was removed from calcein encapsulated into liposomes by gel exclusion chromatography using a Sephadex G-50 column (3 cm×14 cm) and a 200 mM NaCl, 25 mM HEPES, pH 7.3 solution as the elution buffer. The final lipid concentration was determined by a phosphorus assay (Bartlett, 1959, J. Biol. Chem. 234, 466-469). Liposomes' diameter was determined by dynamic laser light scattering using a Coulter N4 Plus submicron particle sizer (Coultronics France S. A, France). Measurements were performed within a 3 nm-10000 nm size window with a fixed 90° scattered light angle.\nThe liposome leakage assay was carried out as described in Planck et al. (1994, J. Biol. Chem. 269, 12918-12924). The liposome stock solution was diluted to a lipid concentration of 45 μM in 1.8× assay buffer (360 mM NaCl, 36 mM sodium citrate, pH 5 and pH 7). A 1:5 serial dilution of the tested peptide was carried out in a 96-well microtiter plate by transferring 20 μl of the peptide solution from one well to the next well and diluting with 80 μl H2O. 100 μl of the liposome solution was added in each well (final lipid concentration: 25 μM) and, after 30 min at room temperature, was assayed for fluorescence at 535 nm (excitation: 485 nm) on a microtiter plate fluorescence spectrometer (WALLAC, 1420 multilabel counter Victor). These conditions are appropriate to analyze fluorescein and as close as possible to the appropriate excitation/ emission profile of calcein (495 nm /515 nm). The value for 100% leakage was obtained by addition of 1 μl of a 10% Triton X-100 solution. Leakage activity was plotted against peptide concentration.\nLiposome leakage activities were analyzed on liposomes consisting of POPC and cholesterol at a molar ratio of 3:2 (mol/mol).\nComplexes of ppTG1 with plasmid DNA pTG11236 were tested for liposome leakage activity on POPC/chol 3:2 liposomes.\nThe series of ppTG1 derivatives as they are listed in Materials and Methods was tested for liposome leakage activity on POPC/chol 3:2 liposomes at pH7."}, "[4]": {"settings": "60 μg pTG11236 with 150 μg ppTG1"}}, "note": "Entries after “also recorded” stand apart in the source; their conditions may differ. Ends that are not written are not given here."}
{"sequence": "GLFKALLKLLKSLWKLLLKA", "values": [{"measurement": "amount of peptide at which 50% of the DNA is complexed", "setting": "plasmid pTG11236; 3 μg pTG11236, 1 μg = 0.35 nmol", "result": 1, "unit": "µg"}, {"measurement": "amount of peptide giving retardation of plasmid", "setting": "plasmid pTG11236; 3 μg plasmid DNA (0.8 pmol), 4 μg peptide = 1.4 nmol", "result": 4, "unit": "µg"}, {"measurement": "membrane disruption (calcein release)", "setting": "[1]", "result": "capable of causing membrane disruption"}, {"measurement": "transfection efficiency", "setting": "293-EBNA cells; 0.05 μg pTG11056 mixed with 0.065 μg ppTG1, charge ratio around 1", "result": "still showed high transfection efficiency"}, {"measurement": "luciferase activities", "setting": "293-EBNA cells; 0.5 μg pTG11056 complexed with 0.65 μg ppTG1, charge ratio around 1", "result": "higher than those observed with complexes formed with Lipofectin or PEI"}, {"measurement": "transfection of human tumor cell lines", "setting": "[2]", "result": "successfully transfected; also recorded: can efficiently transfect human tumor cell lines, especially SW480 cells"}, {"measurement": "more efficient than the complex comprising KALA, best case", "setting": "CHO cells", "result": 2500, "unit": "fold"}, {"measurement": "more efficient in gene transfer than KALA", "setting": "CHO cells; 50 ng pTG11236, optimum charge ratios", "result": 68, "unit": "fold"}, {"measurement": "more efficient in gene transfer than KALA", "setting": "CHO cells; 500 ng pTG11236, optimum charge ratios", "result": 9, "unit": "fold"}, {"measurement": "reporter gene expression after re-administration at day 3", "setting": "B6SJL mice; [4]", "result": "still refractory"}, {"measurement": "reporter gene expression after re-administration at day 14", "setting": "B6SJL mice; [4]", "result": "re-appearance of reporter gene expression"}, {"measurement": "mice with gene expression in the lung", "setting": "B6SJL mice; complexes of pTG11236 and ppTG1, i.v., day 1", "result": "5 out of 5"}, {"measurement": "gene expression 3 days after injection", "setting": "B6SJL mice; ppTG1/plasmid complexes, data not shown", "result": "dropped 3 days after injection to background levels"}, {"measurement": "liposome leakage activity, in words", "setting": "[3]; pH5", "result": "could efficiently liberate calcein"}, {"measurement": "liposome leakage activity, in words", "setting": "[3]; pH7", "result": "could efficiently liberate calcein"}, {"measurement": "liposome leakage of peptide/plasmid complexes", "setting": "[3]; complexed with pTG11236, P/N 5 or 10, pH7", "result": "comparable to free ppTG1"}, {"measurement": "liposome leakage of peptide/plasmid complexes", "setting": "[3]; complexed with pTG11236, P/N of 1 or 0.8, pH7", "result": "slightly reduced"}, {"measurement": "destabilization of POPC/Chol liposomes", "setting": "[3]; peptide alone or complexed with plasmid DNA, summary", "result": "destabilizes efficiently"}]}
